Measurements from US11980598B2, “N-(2-(substituted-naphth-1-yl)ethyl) substituted amide compound, preparation and uses thereof” (BEIJING GREATWAY PHARMACEUTICAL TECHNOLOGY CO., LTD., priority 2017, dated 2024).
Like-named read-outs stand apart in the source and are kept apart here.

Assays:
[1] = In vivo metabolism study, rat oral/tail vein injection model; conditions: for half-life: read-out: t½ (converted); for bioavailability: oral 5 mg/kg vs intravenous 0.5 mg/kg, dose conversion, read-out: F % (bioavailability)
Description: Male SD rats, weighing 200±20 g, SPF grade, were purchased from SPF Biotechnology Co., Ltd.
TSQ Quantum liquid chromatography-mass spectrometer (LC/MS/MS) from Finnigan Inc, USA, chromatography column: TSKgel Amide-80 column (2.0 mm I.D.×100 mm, 5 μm); mobile phase: acetonitrile-water-formic acid (50:50:0.1); flow rate: 0.2 mL/min; injection volume: 5 μL; column temperature: room temperature. Ionization source is electrospray ionization (ESI) with 4.8 KV of spray voltage; capillary temperature (TEM): 300° C.; sheath gas: N2, flow rate: 10 psi; auxiliary gas: N2, flow rate: 1 psi; collision gas (CID): Ar at a pressure of 1.5 mTorr. The mass spectrometry scanning method was selective reaction monitoring (SRM) and detected by positive ion method. The internal standard was a […] solution of aconitine in acetonitrile, the minimum limit of quantification was 5 ng/mL, and the correlation coefficient was >0.99.
Formulation of a solution for intravenous administration: approximately 5 mg of each test drug was accurately weighed, and dissolved in 50 μL of DMSO. To the solution was added an appropriate amount of 40% PEG400 aqueous solution to prepare a 0.5 mg/mL solution. The administration volume was 0.2 mL/200 g body weight, and the dose was 0.5 mg/kg body weight according to concentration conversion.
Formulation of a solution for i.g. administration: approximately 5 mg of each test drug was accurately weighed, and suspended and dispersed with a 1% aqueous solution of HPMC to prepare a 1 mg/mL suspension. The administration volume was 1 mL/200 g body weight, and the dose was 5 mg/kg body weight in terms of concentration according to concentration conversion.
Rats were randomly divided into 4 groups of 5 rats each. Oral gavage and tail vein administration were carried out according to the above dosages. At 2 min, 5 min, 15 min, 30 min, 1 h, 1.5 h, 2 h, and 3 h after administration, blood was collected from an orbit, and centrifuged at 8000 rpm for 10 min. 50 μL of plasma was weighed, and added with 50 μL of internal standard and 150 μL of acetonitrile. The mixture was mixed by shaking, and centrifuged at 18000 rpm for 10 min. The supernatant was taken for LC/MS/MS injection and determination. The determined data were analyzed using a DAS pharmacokinetic program to calculate the main pharmacokinetic parameters.

[2] = system: Kunming mice; assay: Tail suspension test (TST) in mice; format: in vivo, mouse; conditions: 10 mg/kg intraperitoneal, 3 days, last 4 of 6 min
Description: (§1) Animals: Kunming mice, male, body weight 18-22 g, SPF grade; SD rats, male, body weight 150-180 g, SPF grade. The test was carried out after acclimatization, and the animal was fasted for 12 hours before the test.
(§2) All drugs for the test were suspended and dispersed in a 1% aqueous solution of hydroxypropyl methylcellulose (HPMC), and shaken well before use. […] The doses for administration were all 10 mg/kg. For the concentration and volume for administration, see J Psychiatry Neurosci 2004; 29(2):126-133. The mice were intraperitoneally administered in a volume of 0.5 mL/20 g; and the rats were administered by i.g. in a volume of 2 mL/100 g.
Mice were randomly divided into groups according to weight balance. Intraperitoneal injection was administered for three consecutive days, once a day, and the tail suspension test were performed 30 minutes after the third day. The tail suspension box was 25×25×35 cm, and a small clip was connected with a rope at the center of the top plate. An adhesive tape was stuck to the tail of the mouse 2 cm away from the tail end, and the adhesive tape was clamped with the clip to make the mouse in an inverted position. The duration of immobility was recorded during the last 4 minutes of total 6 minutes observed.

[3] = system: chronic stress rat; assay: Chronic unpredictable stress model of rat: novelty-suppressed feeding test; format: in vivo; conditions: stress rats, day 31
Description: Animals: SD rats, male, weighing 150-180 g, SPF grade.
Formulation and administration mode of drugs: All drugs for the test were suspended and dispersed with a 0.5% aqueous solution of CMC-Na, and shaken well before use. The rats were administered by i.g. at a volume of 10 mL/kg.
Rats were acclimatized for 3 days after purchase. First, 48 h of sucrose training was performed. After the training, a sucrose baseline test was performed. The rats were randomly and evenly grouped according to sucrose preference. Then, (dl) a 4-week chronic unpredictable stress (CUS) procedure was performed with the following stress methods: (1) food deprivation (fasting); (2) water deprivation; (3) stroboflash; (4) overnight illumination; (5) wet feeding (200 ml of water was added to 150 g of sawdust bedding); (6) noise stimulation (110 dB), 1 h; (7) swimming in cold water (the water temperature was 10° C.); (8) cage tilt (45 degrees of inclination); (9) tail pinch (at 1 cm away from the tail root) for 6 min; (10) restraint for 1-2 h. One of the above stress methods was used randomly every day, but water deprivation and fasting were separated. The corresponding drugs (including the blank control group and the positive drug group) were given 1 h before the stress in the morning every day. Behavior test was performed after the end of the chronic stress. d25, sucrose preference; d28, open-field; d31, novelty-suppressed feeding test.
On the 29th day of the stress program, the rats were fasted for 48 hours (not water deprivation) and then subjected to a novelty-suppressed feeding test (d31). The rats were placed in a novelty-suppressed feeding chamber with an open top. The bottom of the chamber was covered with a 2 cm thick sawdust. In the center of the chamber were placed 12 food balls of the same size. At the same time as the rats were put in, the latency of the rats to start eating within 5 min was calculated. The criterion for eating was that the animal started chewing food instead of just sniffing or toying with food. Rats that had not eaten within 5 minutes were recorded to have a feeding latency of 5 minutes. The test environment of the test should be kept as quiet as possible; the rats should be placed in the same position and direction each time; the environment of the test was preferably different from the breeding environment, and the light intensity of the test environment was greater than that of the breeding environment.

[4] = system: Kunming mice; assay: Acute toxicity test of mouse; format: in vivo
Description: Mice were administered by i.g. at doses of 5000 mg/kg and 2000 mg/kg. The drugs were dispersed with a 1% aqueous solution of hydroxypropyl methylcellulose (HPMC), and the administration volume was calculated in accordance with 0.2 mL/10 g.

[5] = system: Kunming mice; assay: Forced mouse swimming test; format: in vivo; conditions: 10 mg/kg intraperitoneal, 3 days, last 4 of 6 min
Description: as §1, §2
Animal grouping and administration method were the same as those in the tail suspension test in mice. The mice were placed in a round glass vessel with a height of 20 cm, an inner diameter of 12 cm, a water depth of 10 cm and a water temperature of 25° C.

| Compound | AUC(0-t) ([1]; oral 5 mg/kg) | Immobility time [2] | Feeding latency ([3]; 10 mg/kg i.g. daily) | Feeding latency ([3]; 20 mg/kg i.g. daily) | Feeding latency ([3]; 40 mg/kg i.g. daily) | Acute reaction after single administration ([4]; mice, 2000 mg/kg i.g.) | Adverse reactions during 14-day observation ([4]; mice, 2000 mg/kg i.g.) | Body weight compared with the blank group ([4]; mice, 2000 mg/kg i.g.) | Acute reaction after single administration ([4]; mice, 5000 mg/kg i.g.) | Immobility time [5] | further results |
| --- | --- | --- | --- | --- | --- | --- | --- | --- | --- | --- | --- |
| COc1ccc2cccc(CCNC(C)=O)c2c1 [Agomelatine, reference compound] | 51.57 ng·h/mL | 75.1 ± 21.4 s | 248 ± 21 ^ s | 164 ± 26 s | 130 ± 17 s | the mice all fell into a coma 15 minutes after the administration | no obvious adverse reactions within 14 days after the administration | the body weight was lighter on the first and second days after the administration with a significant difference | the mice all fell into a coma 15 minutes after the administration and died successively after 12 hours | 113.5 ± 26.6 s | half-life ([1]; male, Sprague-Dawley (SD), plasma, intravenous injection 0.5 mg/kg): 20.4 min; AUC(0-t) ([1]; male, Sprague-Dawley (SD), plasma, iv, 0.5 mg/kg, intravenous injection 0.5 mg/kg, read-out: AUC(0-t)): 102 ng·h/mL; bioavailability ([1]; male, Sprague-Dawley (SD), plasma): 5.05%; half-life ([1]; male, Sprague-Dawley (SD), plasma, oral 5 mg/kg): 40.2 min; AUC(0-t) ([1]; male, Sprague-Dawley (SD), plasma, po, 5 mg/kg, oral 5 mg/kg, read-out: AUC(0-t)): 51.6 ng·h/mL; Number of mice that died within 12 hours ([4]; mice, 2000 mg/kg i.g., group of 10): 4 mice |
| [2H]C([2H])([2H])Oc1cc2c(CCNC(C)=O)cccc2cc1Cl [Example 1, N-(2-(6-chloro-7-deuteromethoxy-naphthalen-1-yl)ethyl)acetamide] | 248.83 ng·h/mL | 55.7 ± 19.7 s | 145 ± 23 s | 115 ± 16 s | 117 ± 14 s | the activity of the mice became slightly smaller but there were no obvious adverse reactions | no obvious adverse reactions within 14 days after the administration | no significant difference in body weight compared with the blank group | the mice began to fall into a coma 15 minutes after the administration, and within 24 hours the mice all awakened and returned to normal | 73.0 ± 18.2 s | half-life ([1]; male, SD, plasma, intravenous injection 0.5 mg/kg): 28.8 min; AUC(0-t) ([1]; male, SD, plasma, iv, 0.5 mg/kg, intravenous injection 0.5 mg/kg, read-out: AUC(0-t)): 48.9 ng·h/mL; bioavailability ([1]; male, SD, plasma): 50.9%; half-life ([1]; male, SD, plasma, oral 5 mg/kg): 29.4 min; AUC(0-t) ([1]; male, SD, plasma, po, 5 mg/kg, oral 5 mg/kg, read-out: AUC(0-t)): 249 ng·h/mL; Feeding latency ([3]; 5 mg/kg i.g. daily): 188 ± 21 s; Adverse reactions during 14-day observation ([4]; mice, 5000 mg/kg i.g.): no obvious adverse reactions within 14 days after the administration; Body weight compared with the blank group ([4]; mice, 5000 mg/kg i.g.): no significant difference in body weight compared with the blank group; Safety compared with control drug ([4]; mouse model, overall): safer than the control drug Agomelatine |
